Where two headings read alike, the source gives them in different places. Bridge positions count the residues as written; N and C are the ends. Square brackets hold non-standard residues; d marks the D form. Peptide text beside a SMILES is read from it. Dab = NCC[C@H](N)C(=O)O
Assays:
Assay type in all cases: cell-based, Acinetobacter baumannii
[1] = system: A. baumannii 401046-18; experiment: broth microdilution checkerboard MIC/synergy; conditions: strain 401046-18; for MICs alone: antibiotic alone
Description: (§1) Checkerboards were performed according to the CLSI parameters used for microbroth dilution MIC5. CA-MHB, iron-depleted CA-MHB (ID-CA-MHB) or RPMI supplemented with 10% FCS medium were used as specified and ID-CA-MHB was prepared according to CLSI guidelines. […] FICI is calculated as follows: […]

[2] = system: A. baumannii 401255-18; experiment: broth microdilution checkerboard MIC/synergy; conditions: strain 401255-18; for MICs alone: antibiotic alone
Description: as §1

[3] = system: A. baumannii 402292-17; experiment: broth microdilution checkerboard MIC/synergy; conditions: strain 402292-17; for MICs alone: antibiotic alone
Description: as §1

[4] = system: A. baumannii 402608-17; experiment: broth microdilution checkerboard MIC/synergy; conditions: strain 402608-17; for MICs alone: antibiotic alone
Description: as §1

[5] = system: A. baumannii ACC00535; experiment: broth microdilution checkerboard MIC/synergy; conditions: strain ACC00535; rifabutin/SPR741 in combination
Description: as §1

[6] = system: A. baumannii HUMC1; experiment: broth microdilution checkerboard MIC/synergy; conditions: strain HUMC1; for MICs alone: antibiotic alone
Description: as §1

[7] = system: A. baumannii IHMA1013816; experiment: broth microdilution checkerboard MIC/synergy; conditions: strain IHMA1013816; for MICs alone: antibiotic alone
Description: as §1

[8] = system: A. baumannii IHMA690517; experiment: broth microdilution checkerboard MIC/synergy; conditions: strain IHMA690517; for MICs alone: antibiotic alone
Description: as §1

[9] = system: A. baumannii IHMA863866; experiment: broth microdilution checkerboard MIC/synergy; conditions: strain IHMA863866; for MICs alone: antibiotic alone
Description: as §1

[10] = system: A. baumannii IHMA867231; experiment: broth microdilution checkerboard MIC/synergy; conditions: strain IHMA867231; for MICs alone: antibiotic alone
Description: as §1

[11] = system: A. baumannii IHMA919656; experiment: broth microdilution checkerboard MIC/synergy; conditions: strain IHMA919656; for MICs alone: antibiotic alone
Description: as §1

[12] = system: A. baumannii UNT087-1; experiment: broth microdilution checkerboard MIC/synergy; conditions: strain UNT087-1; for MICs alone: antibiotic alone
Description: as §1

[13] = system: A. baumannii UNT091-1; experiment: broth microdilution checkerboard MIC/synergy; conditions: strain UNT091-1; for MICs alone: antibiotic alone
Description: as §1

[14] = system: A. baumannii UNT191-1; experiment: broth microdilution checkerboard MIC/synergy; conditions: strain UNT191-1; for MICs alone: antibiotic alone
Description: as §1

[15] = system: A. baumannii UNT238-1; experiment: broth microdilution checkerboard MIC/synergy; conditions: strain UNT238-1; for MICs alone: antibiotic alone
Description: as §1

[16] = system: A. baumannii UNT239-1; experiment: broth microdilution checkerboard MIC/synergy; conditions: strain UNT239-1; for MICs alone: antibiotic alone
Description: as §1

[17] = system: A. baumannii LAC-4 strain; experiment: broth microdilution checkerboard MIC/synergy; conditions: for MICs alone: antibiotic alone
Description: as §1
The checkerboards were performed in CA-MHB or ID-CA-MHB for cefiderocol.

[18] = system: panel of MDR clinical isolates of A. baumannii
Description: as §1

[19] = rifabutin/SPR741 in combination
[20] = rifabutin/colistin checkerboard, CA-MHB
[21] = rifampicin/colistin checkerboard
[22] = rifampicin/colistin in combination
[23] = rifabutin/colistin in combination, CA-MHB
[24] = second antibiotic in combination with rifabutin, LAC-4, CA-MHB

## CC(=O)N[C@H](C(=O)N[C@H](CO)C(=O)N[C@H]1CCNC(=O)[C@H]([C@@H](C)O)NC(=O)[C@H](CCN)NC(=O)[C@H](CCN)NC(=O)[C@H](CC(C)C)NC(=O)[C@@H](Cc2ccccc2)NC(=O)[C@H](CCN)NC1=O)[C@@H](C)O [SPR741] (Ac-T[dS][Dab][Dab][dF]L[Dab][Dab]T; lactam 3-C)
[1]; [19]
  MICs combi / in combination: 8 mg/L
[2]; [19]
  MICs combi / in combination: 4 mg/L
[3]; [19]
  MICs combi / in combination: 32 mg/L
[4]; [19]
  MICs combi / in combination: 16 mg/L
[5]
  MICs combi / in combination: 4 mg/L
[6]; [19]
  MICs combi / in combination: 4 mg/L
[7]; [19]
  MICs combi / in combination: 16 mg/L
[8]; [19]
  MICs combi / in combination: 16 mg/L
[9]; [19]
  MICs combi / in combination: 16 mg/L
[10]; [19]
  MICs combi / in combination: 32 mg/L
[11]; [19]
  MICs combi / in combination: 8 mg/L
[12]; [19]
  MICs combi / in combination: 8 mg/L
[13]; [19]
  MICs combi / in combination: 2 mg/L
[14]; [19]
  MICs combi / in combination: 4 mg/L
[15]; [19]
  MICs combi / in combination: 4 mg/L
[16]; [19]
  MICs combi / in combination: 4 mg/L
[17]; strain LAC-4, rifabutin/SPR741 in combination
  MICs combi / in combination: 4 mg/L
[18]; higher than the one of colistin
  SPR741 concentration required to achieve synergy with rifabutin, relative to colistin: at least 8 fold
[18]; rifabutin with SPR741
  strains on which synergy was observed: 88%

## colistin
[1]; [20]
  MICs alone: 0.5 mg/L
[1]; [21]
  MICs alone: 0.25 mg/L
[1]; [22]
  MICs combi: 0.06 mg/L
[2]; [20]
  MICs alone: 0.25 mg/L
[2]; [21]
  MICs alone: 0.25 mg/L
[2]; [23]
  MICs combi: 0.06 mg/L
[2]; [22]
  MICs combi: 0.06 mg/L
[3]; [20]
  MICs alone: 1 mg/L
[3]; [21]
  MICs alone: 0.25 mg/L
[3]; [23]
  MICs combi: 0.25 mg/L
[4]; [20]
  MICs alone: 1 mg/L
[4]; [21]
  MICs alone: 1 mg/L
[4]; [23]
  MICs combi: 0.25 mg/L
[4]; [22]
  MICs combi: 0.25 mg/L
[6]; [20]
  MICs alone: 0.5 mg/L
[6]; [21]
  MICs alone: 0.5 mg/L
[7]; [20]
  MICs alone: 16 mg/L
[7]; [21]
  MICs alone: 32 mg/L
[7]; [23]
  MICs combi: <0.5 mg/L
[7]; [22]
  MICs combi: <0.5 mg/L
[8]; [20]
  MICs alone: 16 mg/L
[8]; [21]
  MICs alone: 16 mg/L
[8]; [23]
  MICs combi: 0.5 mg/L
[8]; [22]
  MICs combi: <0.5 mg/L
[9]; [20]
  MICs alone: >512 mg/L
[9]; [21]
  MICs alone: 512 mg/L
[9]; [23]
  MICs combi: 1 mg/L
[9]; [22]
  MICs combi: 0.5 mg/L
[10]; [20]
  MICs alone: 32 mg/L
[10]; [21]
  MICs alone: 32 mg/L
[10]; [23]
  MICs combi: 4 mg/L
[10]; [22]
  MICs combi: 4 mg/L
[11]; [20]
  MICs alone: 512 mg/L
[11]; [21]
  MICs alone: 512 mg/L
[11]; [23]
  MICs combi: 1 mg/L
[11]; [22]
  MICs combi: 1 mg/L
[12]; [20]
  MICs alone: 1 mg/L
[12]; [21]
  MICs alone: 0.5 mg/L
[12]; [23]
  MICs combi: 0.25 mg/L
[13]; [20]
  MICs alone: 0.5 mg/L
[13]; [21]
  MICs alone: 0.5 mg/L
[14]; [20]
  MICs alone: 2 mg/L
[14]; [21]
  MICs alone: 1 mg/L
[14]; [23]
  MICs combi: 0.5 mg/L
[14]; [22]
  MICs combi: 0.25 mg/L
[15]; [20]
  MICs alone: 0.25 mg/L
[15]; [21]
  MICs alone: 0.5 mg/L
[15]; [23]
  MICs combi: 0.06 mg/L
[16]; [20]
  MICs alone: 1 mg/L
[16]; [21]
  MICs alone: 1 mg/L
[16]; [23]
  MICs combi: 0.25 mg/L
[16]; [22]
  MICs combi: 0.25 mg/L
[17]; [24]
  FICI: 0.254
  Interpretation: synergy (synergy (FICI≤0.5))
[17]; strain LAC-4, rifabutin/colistin checkerboard, CA-MHB
  MICs alone: 0.5 mg/L
[17]; strain LAC-4, rifampicin/colistin checkerboard
  MICs alone: 0.5 mg/L
[18]; in combination with rifabutin, colistin resistant strains, CA-MHB
  reduction of colistin MICs: at least 16 fold
[18]; rifabutin with colistin, CA-MHB, 16 MDR isolates
  strains on which synergy was observed: 100%

From US11766425B2, “Antibiotic combination therapies” (BIOVERSYS AG, priority 2019, dated 2023)
